Here are results for three compounds from paper PMC4593646, “The Cyclooctadepsipeptide Anthelmintic Emodepside Differentially Modulates Nematode, Insect and Human Calcium-Activated Potassium (SLO) Channel Alpha Subunits” (PLoS Neglected Tropical Diseases, 2015).

In one experiment the target is T1, Drosophila Slo (Dm Slo) (Drosophila melanogaster, UniProt Q03720).
T1 construct: alpha subunit, stably expressed in CHO cells
Kind of experiment: whole cell voltage clamp, CHO cells stably expressing Dm Slo, dose-response. The format is cell-based.

The target of experiment [1] is T2, human KCNMA1 (hum KCNMA1) (Homo sapiens, UniProt Q12791).
T2 construct: KCNMA1 variant 2/isoform b (NP_002238), expressed in HEK293 cells
Kind of experiment: whole cell patch clamp, transfected HEK293 cells; transient facilitation then inhibition at […]. It counts as cell-based. In general terms: In patch-clamp work, channel activity is measured electrically.

In general, IC50 refers to the concentration that gives 50% inhibition. A lower IC50 goes with inhibition by little substance.

T1 sequence (Q03720 whole entry): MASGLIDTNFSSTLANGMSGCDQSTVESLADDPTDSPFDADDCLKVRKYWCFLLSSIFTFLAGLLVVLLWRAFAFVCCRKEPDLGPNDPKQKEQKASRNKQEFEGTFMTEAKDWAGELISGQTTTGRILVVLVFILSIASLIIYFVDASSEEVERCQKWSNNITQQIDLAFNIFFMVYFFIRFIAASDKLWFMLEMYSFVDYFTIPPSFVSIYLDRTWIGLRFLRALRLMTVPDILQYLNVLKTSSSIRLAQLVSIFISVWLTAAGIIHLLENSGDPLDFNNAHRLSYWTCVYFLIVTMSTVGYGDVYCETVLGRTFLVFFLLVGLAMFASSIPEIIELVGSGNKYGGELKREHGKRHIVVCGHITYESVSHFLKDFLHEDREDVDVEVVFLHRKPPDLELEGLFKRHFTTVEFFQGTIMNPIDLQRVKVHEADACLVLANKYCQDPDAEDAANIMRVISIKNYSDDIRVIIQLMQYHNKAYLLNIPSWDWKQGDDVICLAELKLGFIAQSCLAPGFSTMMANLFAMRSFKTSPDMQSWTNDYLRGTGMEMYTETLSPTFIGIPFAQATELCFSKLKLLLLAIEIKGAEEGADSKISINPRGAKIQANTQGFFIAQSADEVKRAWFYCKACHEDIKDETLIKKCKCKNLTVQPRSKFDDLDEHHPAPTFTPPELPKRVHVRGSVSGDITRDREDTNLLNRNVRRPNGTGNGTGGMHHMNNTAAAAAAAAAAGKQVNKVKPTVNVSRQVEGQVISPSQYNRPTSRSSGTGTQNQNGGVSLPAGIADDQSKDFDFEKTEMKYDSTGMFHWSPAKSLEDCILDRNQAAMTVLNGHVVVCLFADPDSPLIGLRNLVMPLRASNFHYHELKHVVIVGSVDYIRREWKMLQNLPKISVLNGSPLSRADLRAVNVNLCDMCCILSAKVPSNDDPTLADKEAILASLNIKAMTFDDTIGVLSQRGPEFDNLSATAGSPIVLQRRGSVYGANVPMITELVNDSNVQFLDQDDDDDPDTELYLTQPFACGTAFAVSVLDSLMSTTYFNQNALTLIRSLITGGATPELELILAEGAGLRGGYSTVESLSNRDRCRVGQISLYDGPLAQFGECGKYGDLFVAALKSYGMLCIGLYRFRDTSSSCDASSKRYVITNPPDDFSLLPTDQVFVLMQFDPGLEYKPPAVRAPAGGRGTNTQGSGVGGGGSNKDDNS
T2 sequence (Q12791 whole entry, canonical isoform): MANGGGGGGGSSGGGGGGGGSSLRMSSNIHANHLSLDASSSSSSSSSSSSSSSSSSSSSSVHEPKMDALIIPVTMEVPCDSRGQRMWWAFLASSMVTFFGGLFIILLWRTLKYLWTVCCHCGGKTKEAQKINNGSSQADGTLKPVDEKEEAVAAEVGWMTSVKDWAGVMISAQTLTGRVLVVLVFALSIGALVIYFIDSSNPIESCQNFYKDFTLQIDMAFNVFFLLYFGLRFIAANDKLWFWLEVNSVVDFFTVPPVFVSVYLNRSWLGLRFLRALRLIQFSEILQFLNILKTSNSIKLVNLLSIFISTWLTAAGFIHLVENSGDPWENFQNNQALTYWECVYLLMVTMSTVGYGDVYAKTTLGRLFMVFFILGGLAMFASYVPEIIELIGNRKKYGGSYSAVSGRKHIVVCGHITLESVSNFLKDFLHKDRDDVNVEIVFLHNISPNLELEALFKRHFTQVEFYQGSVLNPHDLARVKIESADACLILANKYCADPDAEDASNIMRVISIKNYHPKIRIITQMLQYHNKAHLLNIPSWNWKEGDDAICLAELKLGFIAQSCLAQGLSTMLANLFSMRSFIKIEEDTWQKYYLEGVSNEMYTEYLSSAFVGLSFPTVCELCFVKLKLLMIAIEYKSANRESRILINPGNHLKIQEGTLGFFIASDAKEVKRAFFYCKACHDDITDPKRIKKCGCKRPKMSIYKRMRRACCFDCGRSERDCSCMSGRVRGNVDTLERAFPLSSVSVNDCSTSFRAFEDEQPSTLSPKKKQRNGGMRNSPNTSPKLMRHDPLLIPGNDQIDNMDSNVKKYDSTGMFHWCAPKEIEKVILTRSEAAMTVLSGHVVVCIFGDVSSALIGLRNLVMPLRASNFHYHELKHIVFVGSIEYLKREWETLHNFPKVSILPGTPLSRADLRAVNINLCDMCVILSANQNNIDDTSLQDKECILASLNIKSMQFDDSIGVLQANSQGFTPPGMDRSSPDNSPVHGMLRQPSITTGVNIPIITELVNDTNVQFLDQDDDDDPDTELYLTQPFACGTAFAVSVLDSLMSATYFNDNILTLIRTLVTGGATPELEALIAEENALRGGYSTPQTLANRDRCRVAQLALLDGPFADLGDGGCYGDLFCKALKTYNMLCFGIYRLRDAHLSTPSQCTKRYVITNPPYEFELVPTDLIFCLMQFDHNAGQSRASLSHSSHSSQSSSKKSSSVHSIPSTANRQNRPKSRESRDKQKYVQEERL

For `C=C(C)[C@H]1O[C@H]2CC[C@@]3(C)[C@@](O)(CC[C@H]4[C@@H]5OC(C)(C)[C@H]6C[C@@H]7C(=C)Cc8c(Cl)cc9[nH]c(c5c9c8[C@@]76O)[C@@]43C)[C@@]23O[C@H]3[C@H]1O` [penitrem A], on Drosophila Slo (Dm Slo), the half-inhibitory concentration (IC50) is 0.5 nM. Take `CC(C)C[C@H]1C(=O)O[C@H](Cc2ccc(N3CCOCC3)cc2)C(=O)N(C)[C@@H](CC(C)C)C(=O)O[C@H](C)C(=O)N(C)[C@@H](CC(C)C)C(=O)O[C@H](Cc2ccc(N3CCOCC3)cc2)C(=O)N(C)[C@@H](CC(C)C)C(=O)O[C@H](C)C(=O)N1C` [emodepside]: the “whole cell patch clamp, transfected HEK293 cells; transient facilitation then in” value in experiment [1] was “In HEK293 cells expressing KCNMA1 emodepside elicited a biphasic, concentration-dependent effect on current amplitude”. At Drosophila Slo (Dm Slo), `COc1ccc2c3c4n(c2c1)[C@H](C=C(C)C)OOC(C)(C)C[C@@H]4N1C(=O)[C@@H]2CCCN2C(=O)[C@]1(O)[C@H]3O` [verruculogen] registered an IC50 of 6.2 nM.
